Measured values as given in patent US20160047819A1, “METHOD FOR DIAGNOSING VAGINAL INFECTIONS” (priority 2013, published 2016).

Tested on: vaginal proteome (human proteins in vaginal fluid)
Experiment: MS/MS proteomic analysis of vaginal fluid pools, BV-affected women before (BV) and after rifaximin/placebo treatment: human proteins
Format: in vivo
Description: Proteomic analysis was performed on 9 pools of vaginal isolates, grouped according to the status of the BV infection: • H pool (from 41 healthy women); BV pool (from 39 BV-affected women); • A-R pool (from 2 women who were in remission after rifaximin treatment-group A); • A-N pool (from 8 women who were not in remission after rifaximin treatment-group A); • B-R pool (from 5 women who were in remission after rifaximin treatment-group B); • B-N pool (from 5 women who were not in remission after rifaximin treatment-group B); • C-R pool (from 4 women who were in remission after rifaximin treatment-group C); • C-N (from 5 women who were not in remission after rifaximin treatment-group C); • D-N (from 10 women who were not in remission after placebo treatment-group D). Scheme of the vaginal fluids collected for testing the diagnostic method is represented in FIG. 1.
In these figures are reported the peptides in the fractionated pools of healthy women, women affected by BV and peptides of women treated with rifaximin. The treatment with rifaximin was at dosage of 100 mg/day for 5 days; (remission, A-R; no remission, A-N), 25 mg/5 days (remission, B-R; no remission, B-N), 100 mg/2 days (remission, C-R; no remission, C-N), and placebo for 5 days (D-N). Two types of comparisons were carried out: (i) between fractionated pools of proteins from vaginal fluid of healthy women (HF) versus fractionated pool of proteins from vaginal fluid of women affected by bacterial vaginosis (BVF); (ii) between whole pools of proteins from vaginal fluid of women affected by BV treated by administering different doses of rifaximin or placebo before (BV) and after (A-R, A-N, B-R, B-N, C-R, C-N, D-N) treatment. Fractioned pools of proteins are obtained, e.g., by separating the proteins by separation on membrane filtration with different membrane porosity, prior to MS/MS analysis.
Nine volumes of acetone: HCl (10:1) were added to the supernatant of the vaginal rinsing and proteins were precipitated by centrifuging at 12000 g for 10 min. The protein pellet was dissolved in 1 mL of 70% ethanol and the sample was spun at 12000 g for 10 min. One mL of acetone was added and the proteins were further precipitated by centrifugation at 12000 g for 5 min. After removing supernatant, pellet was dried by SpeedVac concentrator (Thermo Savant ISS110, Thermo Fisher Scientific, Waltham, Mass.) and then stored at −20° C.
Protein extract was quantified using the 2-D Quant Kit (GE Healthcare, Uppsala, Sweden) according to the manufacturer's instructions.
Patients who were diagnosed for BV at the study visit V1 were included in a multicentre, double-blind, randomised, placebo-controlled study (EudraCT: 2009-011826-32), that was performed to compare the efficacy of different doses of rifaximin vaginal tablets versus placebo for the treatment of BV. The patients underwent a randomisation visit and were distributed into 4 treatment groups: group A received 100 mg rifaximin vaginal tablet once daily for 5 days (n=10), group B received 25 mg rifaximin vaginal tablet once daily for 5 days (n=10), group C received 100 mg rifaximin vaginal tablet once daily for the first 2 days and placebo vaginal tablet for the remaining 3 days (n=9), group D received placebo vaginal tablet once daily for 5 days (n=10). Study medication was administered intra-vaginally at bedtime. After 7 to 10 days from the end of the therapy a follow-up visit (V3) was performed. Remission was evaluated at V3 according to Amsel's criteria (<3) and Gram stain Nugent score (≦3) (Table 1).
Standardized vaginal rinsings with 2 mL of saline were collected for analysis at V1 and V3 by flushing and re-aspirating the fluid through a 22 Gauge needle in the left, central and right upper vaginal vaults. The vaginal rinsings were subsequently stored at −80° C. until use.
MS/MS analysis was carried out for H and BV pools and for the whole BV, A-R, A-N, B-R, B-N, C-R, C-N and D-N pools containing 50 μg of protein each. […]

CO[C@H]1/C=C/O[C@@]2(C)Oc3c(C)c(O)c4c(O)c(c5c(nc6cc(C)ccn65)c4c3C2=O)NC(=O)/C(C)=C\C=C\[C@H](C)[C@H](O)[C@@H](C)[C@@H](O)[C@@H](C)[C@H](OC(C)=O)[C@@H]1C [rifaximin]
Ratio X/H Zyxin (Q15942) (pool A-R after treatment): −3.2 | Ratio X/H Sciellin (O95171) (pool B-N after treatment): 0.0 | Ratio X/H Semenogelin-2 (Q02383) (pool B-N after treatment): −2.3 | Ratio X/H Serine protease 27 (Q9BQR3) (pool B-N after treatment): 0.0 | Ratio X/H Serine/threonine-protein kinase ULK1 (O75385) (pool B-N after treatment): 0.0 | Ratio X/H Serotransferrin (P02787) (pool B-N after treatment): 0.0 | Ratio X/H Serpin B3 (P29508) (pool B-N after treatment): 1.8 | Ratio X/H Serpin B4 (P48594) (pool B-N after treatment): 1.5 | Ratio X/H Serpin B5 (P36952) (pool B-N after treatment): 0.0 | Ratio X/H Serpin B6 (P35237) (pool B-N after treatment): 0.0 | Ratio X/H Serpin B9 (P50453) (pool B-N after treatment): 0.0 | Ratio X/H Serpin B12 (Q96P63) (pool B-N after treatment): −1.8 | Ratio X/H Serpin B13 (Q9UIV8) (pool B-N after treatment): 1.5 | Ratio X/H Serum albumin (P02768) (pool B-N after treatment): 0.0 | Ratio X/H Serum paraoxonase/arylesterase 1 (P27169) (pool B-N after treatment): 1.7 | Ratio X/H Small proline-rich protein 3 (Q9UBC9) (pool B-N after treatment): 0.0 | Ratio X/H Stanniocalcin-1 (P52823) (pool B-N after treatment): 1.7 | Ratio X/H Sulfhydryl oxidase 1 (O00391) (pool B-N after treatment): 0.0 | Ratio X/H Superoxide dismutase [Cu—Zn] (P00441) (pool B-N after treatment): 0.0 | Ratio X/H Suprabasin (Q6UWP8) (pool B-N after treatment): 7.6 | Ratio X/H Syntenin-1 (O00560) (pool B-N after treatment): 2.6 | Ratio X/H Talin-1 (Q9Y490) (pool B-N after treatment): 0.0 | Ratio X/H Tctex1 domain-containing protein 2 (Q8WW35) (pool B-N after treatment): −25.1 | Ratio X/H Teneurin-3 (Q9P273) (pool B-N after treatment): 12.3 | Ratio X/H Thioredoxin (P10599) (pool B-N after treatment): 1.5 | Ratio X/H Transaldolase (P37837) (pool B-N after treatment): 1.6 | Ratio X/H Transmembrane protease serine 11D (O60235) (pool B-N after treatment): −1.6 | Ratio X/H Transthyretin (P02766) (pool B-N after treatment): 0.0 | Ratio X/H Tumor protein D54 (O43399) (pool B-N after treatment): 0.0 | Ratio X/H UTP--glucose-1-phosphate uridylyltransferase (Q16851) (pool B-N after treatment): 0.0 | Ratio X/H UV excision repair protein RAD23 homolog B (P54727) (pool B-N after treatment): −1.6 | Ratio X/H Versican core protein (P13611) (pool B-N after treatment): −1.7 | Ratio X/H Vinculin (P18206) (pool B-N after treatment): 1.5 | Ratio X/H Vitamin D-binding protein (P02774) (pool B-N after treatment): −2.0 | Ratio X/H Werner syndrome ATP-dependent helicase (Q14191) (pool B-N after treatment): 131.2 | Ratio X/H Zinc finger protein 185 (O15231) (pool B-N after treatment): 0.0 | Ratio X/H Zinc finger protein 335 (Q9H4Z2) (pool B-N after treatment): 0.0 | Ratio X/H Zinc-alpha-2-glycoprotein (P25311) (pool B-N after treatment): 0.0 | Ratio X/H Zyxin (Q15942) (pool B-N after treatment): 0.0 | Ratio X/H Sciellin (O95171) (pool B-R after treatment): 0.0 | Ratio X/H Semenogelin-2 (Q02383) (pool B-R after treatment): 5.9 | Ratio X/H Serine protease 27 (Q9BQR3) (pool B-R after treatment): −2.3 | Ratio X/H Serine/threonine-protein kinase ULK1 (O75385) (pool B-R after treatment): −4.4 | Ratio X/H Serotransferrin (P02787) (pool B-R after treatment): −3.9 | Ratio X/H Serpin B3 (P29508) (pool B-R after treatment): 4.3 | Ratio X/H Serpin B4 (P48594) (pool B-R after treatment): 0.0 | Ratio X/H Serpin B5 (P36952) (pool B-R after treatment): −4.7 | Ratio X/H Serpin B6 (P35237) (pool B-R after treatment): 0.0 | Ratio X/H Serpin B9 (P50453) (pool B-R after treatment): −5.6 | Ratio X/H Serpin B12 (Q96P63) (pool B-R after treatment): −1.9 | Ratio X/H Serpin B13 (Q9UIV8) (pool B-R after treatment): 0.0 | Ratio X/H Serum albumin (P02768) (pool B-R after treatment): −13.2 | Ratio X/H Serum paraoxonase/arylesterase 1 (P27169) (pool B-R after treatment): 0.0 | Ratio X/H Small proline-rich protein 3 (Q9UBC9) (pool B-R after treatment): 6.6 | Ratio X/H Stanniocalcin-1 (P52823) (pool B-R after treatment): 113.1 | Ratio X/H Sulfhydryl oxidase 1 (O00391) (pool B-R after treatment): 1.6 | Ratio X/H Superoxide dismutase [Cu—Zn] (P00441) (pool B-R after treatment): −1.5 | Ratio X/H Suprabasin (Q6UWP8) (pool B-R after treatment): 15.1 | Ratio X/H Syntenin-1 (O00560) (pool B-R after treatment): −3.1 | Ratio X/H Talin-1 (Q9Y490) (pool B-R after treatment): −1.6 | Ratio X/H Tctex1 domain-containing protein 2 (Q8WW35) (pool B-R after treatment): 4.2 | Ratio X/H Teneurin-3 (Q9P273) (pool B-R after treatment): −2.3 | Ratio X/H Thioredoxin (P10599) (pool B-R after treatment): 3.1 | Ratio X/H Transaldolase (P37837) (pool B-R after treatment): −1.7 | Ratio X/H Transmembrane protease serine 11D (O60235) (pool B-R after treatment): 2.6 | Ratio X/H Transthyretin (P02766) (pool B-R after treatment): −4.7 | Ratio X/H Tumor protein D54 (O43399) (pool B-R after treatment): 2.2 | Ratio X/H UTP--glucose-1-phosphate uridylyltransferase (Q16851) (pool B-R after treatment): 0.0 | Ratio X/H UV excision repair protein RAD23 homolog B (P54727) (pool B-R after treatment): −2.2 | Ratio X/H Uronyl 2-sulfotransferase (Q9Y2C2) (pool B-R after treatment): 2.1 | Ratio X/H Versican core protein (P13611) (pool B-R after treatment): 2.6 | Ratio X/H Vinculin (P18206) (pool B-R after treatment): 0.0 | Ratio X/H Vitamin D-binding protein (P02774) (pool B-R after treatment): −17.8 | Ratio X/H Werner syndrome ATP-dependent helicase (Q14191) (pool B-R after treatment): 750.5 | Ratio X/H Zinc finger protein 185 (O15231) (pool B-R after treatment): 5.8 | Ratio X/H Zinc finger protein 335 (Q9H4Z2) (pool B-R after treatment): −1.6 | Ratio X/H Zinc-alpha-2-glycoprotein (P25311) (pool B-R after treatment): −9.4 | Ratio X/H Zyxin (Q15942) (pool B-R after treatment): −5.1
